Assay results: US20220315554A1, “COMPOUNDS COMPRISING A […] LIGAND AND USE THEREOF” (priority 2019, published 2022)
Numbered stars: 1 amine (or outer) side, 2 acyl side, 3 side chain; on linkers, the order of the positions; unused ones are H or OH. Bridge positions count the residues as written; N and C are the ends. Square brackets hold non-standard residues; d marks the D form. Peptide text beside a SMILES is read from it. * marks the point of attachment. TBMB(SCH2CH2NH-DOTA) = O=C(O)CN1CCN(CC(=O)O)CCN(CC(=O)NCCSCc2cc(C[*:1])cc(C[*:2])c2)CCN(CC(=O)O)CC1; X5 = O=C(O)CN1CCN(CC(=O)O)CCN(CC(=O)NCCSCc2cc(CSC[C@@H](CO)N[*:2])cc(C[*:1])c2)CCN(CC(=O)O)CC1; X1 = O=C(O)CN1CCN(CC(=O)O)CCN(CC(=O)N2CCN(Cc3cc(C[*:1])cc(C[*:2])c3)CC2)CCN(CC(=O)O)CC1; X52 = NCCOCCOCC(=O)N1CCN(Cc2cc(C[*:1])cc(C[*:2])c2)CC1; mXylylene = c1cc(C[*:1])cc(C[*:2])c1; X41 = NCCCCCC(=O)NCCCOCCOCCOCCCN*; Suc = O=C(CCC(=O)[*:2])[*:1]; Nle = CCCC[C@H](N)C(=O)O; Hexanoyl = CCCCCC(=O)*; Sar = CNCC(=O)O

Columns and labels:
Human recombinant FAP = molecular target: T1, Human recombinant FAP (Homo sapiens, UniProt Q12884); test: FRET-based FAP protease activity assay; type: biochemical; design: purchased R&D systems 3715-SE; settings: pIC50 Category (Activity), FRET substrate, 37° C.
T1 sequence (Q12884 1-760): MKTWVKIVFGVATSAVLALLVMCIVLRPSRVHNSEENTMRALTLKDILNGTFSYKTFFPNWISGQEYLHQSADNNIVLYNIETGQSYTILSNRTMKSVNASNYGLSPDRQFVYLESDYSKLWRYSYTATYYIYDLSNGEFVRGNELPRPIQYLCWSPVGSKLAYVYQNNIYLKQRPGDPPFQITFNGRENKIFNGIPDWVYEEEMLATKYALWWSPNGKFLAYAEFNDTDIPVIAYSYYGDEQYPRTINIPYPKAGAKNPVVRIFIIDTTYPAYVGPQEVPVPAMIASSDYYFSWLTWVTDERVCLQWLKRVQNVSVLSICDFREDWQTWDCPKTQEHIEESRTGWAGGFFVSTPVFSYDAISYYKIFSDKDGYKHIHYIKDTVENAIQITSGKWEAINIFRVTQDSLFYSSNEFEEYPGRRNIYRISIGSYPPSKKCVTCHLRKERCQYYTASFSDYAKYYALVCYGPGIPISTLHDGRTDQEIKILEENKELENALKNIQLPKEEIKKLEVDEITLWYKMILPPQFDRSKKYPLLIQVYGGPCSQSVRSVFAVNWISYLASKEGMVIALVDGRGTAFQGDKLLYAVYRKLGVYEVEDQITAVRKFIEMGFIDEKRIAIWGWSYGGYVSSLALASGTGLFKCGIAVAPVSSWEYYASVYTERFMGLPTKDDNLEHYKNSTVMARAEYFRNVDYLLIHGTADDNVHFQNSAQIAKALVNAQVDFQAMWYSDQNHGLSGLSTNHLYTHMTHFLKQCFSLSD

[1] = molecular target: T2, FAP-expressing human WI-38 fibroblasts (Homo sapiens, UniProt Q12884); test: Competitive FACS binding assay; settings: competition with 3 nM Cy5-labeled compound, 4° C., 1 hour; for IC50: pIC50 Category (FACS)
T2 construct: FAP-expressing human WI-38 fibroblasts (ECACC) were cultured in EMEM; host or cells: WI-38 human fibroblasts
T2 sequence (Q12884 1-760): T1 sequence (Q12884 1-760)
Procedure: Cells were analyzed in an Attune NxT flow cytometer. […]

SMILES	IC50 (Human recombinant FAP)	pIC50 Category (FACS) [1]	IC50 [1]
CCCCCS(=O)(=O)N[C@H]1CSCc2cc(CSCCNC(=O)CN3CCN(CC(=O)O)CCN(CC(=O)O)CCN(CC(=O)O)CC3)cc(c2)CSC[C@@H](C(=O)O)NC(=O)[C@H](Cc2ccccc2)NC(=O)[C@H](CCC(N)=O)NC(=O)[C@H]([C@@H](C)O)NC(=O)[C@@H]2CCCN2C(=O)[C@@H]2CCCN2C1=O [3BP-3691, Pentyl-SO2-[Cys(tMeBn(DOTA-AET))-Pro-Pro-Thr-Glu-Phe-Cys]-OH]	10 to 79.4 nM	A (pIC50 values >8.0)	–
CCCCCC(=O)N[C@H]1CSCc2cc(CSCCNC(=O)CN3CCN(CC(=O)O)CCN(CC(=O)O)CCN(CC(=O)O)CC3)cc(c2)CSC[C@@H](C(N)=O)NC(=O)[C@H](Cc2ccccc2)NC(=O)[C@H](CCC(N)=O)NC(=O)[C@H]([C@@H](C)O)NC(=O)[C@@H]2CCCN2C(=O)CN(C)C1=O [3BP-3744, Hex-[Cys(tMeBn(DOTA-AET))-Nmg-Pro-Thr-Gln-Phe-Cys]-NH2] (Hexanoyl-C[Sar]PTQFC-NH2; linker 1-7 via TBMB(SCH2CH2NH-DOTA))	< 10 nM	–	< 10 nM
CCCCCC(=O)N[C@H]1CSCc2cc(CSCCNC(=O)CN3CCN(CC(=O)O)CCN(CC(=O)O)CCN(CC(=O)O)CC3)cc(c2)CSC[C@@H](CO)NC(=O)[C@H](Cc2ccccc2)NC(=O)[C@H](CCC(N)=O)NC(=O)[C@H]([C@@H](C)O)NC(=O)[C@@H]2CCCN2C(=O)[C@@H]2CCCN2C1=O [3BP-3762, Hex-[Cys(tMeBn(DOTA-AET))-Pro-Pro-Thr-Gln-Phe-Cysol]] (Hexanoyl-CPPTQF; linker 1-C via X5)	100 to 794 nM	–	> 1000 nM
CCCCCC(=O)N[C@H]1CSCc2cc(CSCCNC(=O)CN3CCN(CC(=O)O)CCN(CC(=O)O)CCN(CC(=O)O)CC3)cc(c2)CSC[C@@H](CO)NC(=O)[C@H](Cc2ccccc2)NC(=O)[C@H](CCC(N)=O)NC(=O)[C@H]([C@@H](C)O)NC(=O)[C@@H]2CCCN2C(=O)[C@@H]2CCCN2C1=O [3BP-3767, Hex-[Cys(tMeBn(DOTA-AET))-Pro-Pro-Thr-Gln-Phe-Cysol]] (Hexanoyl-CPPTQF; linker 1-C via X5)	< 10 nM	–	< 10 nM
CCCCCC(=O)N[C@H]1CSCc2cc(cc(CN3CCN(C(=O)CN4CCN5CCN6CCN(CC4)CC(=O)[O][In]([O]C(=O)C6)[O]C(=O)C5)CC3)c2)CSC[C@@H](C(=O)O)NC(=O)[C@H](Cc2ccccc2)NC(=O)[C@H](CCC(N)=O)NC(=O)[C@H]([C@@H](C)O)NC(=O)[C@@H]2CCCN2C(=O)[C@@H]2CCCN2C1=O [3BP-3770, Hex-[Cys(tMeBn(InDOTA-PP))-Pro-Pro-Thr-Gln-Phe-Cys]-OH]	< 10 nM	–	< 10 nM
CCCCCC(=O)N[C@H]1CSCc2cc(cc(CN3CCN(C(=O)CN4CCN(CC(=O)O)CCN(CC(=O)O)CCN(CC(=O)O)CC4)CC3)c2)CSC[C@@H](C(=O)O)NC(=O)[C@H](Cc2ccccc2)NC(=O)[C@H](CCC(N)=O)NC(=O)[C@H]([C@@H](C)O)NC(=O)[C@@H]2CCCN2C(=O)CN(C)C1=O [3BP-3771, Hex-[Cys(tMeBn(DOTA-PP))-Nmg-Pro-Thr-Gln-Phe-Cys]-OH] (Hexanoyl-C[Sar]PTQFC-OH; linker 1-7 via X1)	< 10 nM	–	< 10 nM
CCCCCC(=O)N[C@H]1CSCc2cc(cc(CN3CCN(C(=O)COCCOCCN)CC3)c2)CSC[C@@H](C(=O)N[C@@H](CC(=O)O)C(N)=O)NC(=O)[C@H](Cc2ccccc2)NC(=O)[C@H](CCC(N)=O)NC(=O)[C@H]([C@@H](C)O)NC(=O)[C@@H]2CCCN2C(=O)[C@@H]2CCCN2C1=O [3BP-3967, Hex-[Cys-(tMeBn(H-O2Oc-PP))-Pro-Pro-Thr-Gln-Phe-Cys]-Asp-NH2] (Hexanoyl-CPPTQFCD-NH2; linker 1-7 via X52)	< 10 nM	–	< 10 nM
CCCC[C@H](NC(=O)CCC(=O)NCCCOCCOCCOCCCNC(=O)CCCCCN)C(=O)N[C@H]1CSCc2cccc(c2)CSC[C@@H](C(=O)N[C@@H](CC(=O)O)C(N)=O)NC(=O)[C@H](Cc2ccccc2)NC(=O)[C@H](CCC(N)=O)NC(=O)[C@H]([C@@H](C)O)NC(=O)[C@@H]2CCCN2C(=O)[C@@H]2CCCN2C1=O [3BP-3980, H-Ahx-Ttds-Nle-[Cys-(3MeBn)-Pro-Pro-Thr-Gln-Phe-Cys]-Asp-NH2] ({X41-Suc}-[Nle]CPPTQFCD-NH2; linker 2-8 via mXylylene)	< 10 nM	–	< 10 nM
